# Measurements from ChEMBL document CHEMBL5365523, “Design of a structure-activity relationship model of vitamin K epoxide reductase (VKORC1) inhibitors combining chemical synthesis of new compounds, enzymatic assays and molecular modelling” (Bioorg Med Chem, 2023).
# System: not listed separately
# Test: Metabolic stability in rat hepatocytes assessed as half life
# Type: ADME, cell-based, Hepatocyte
row,Structure (SMILES),half-life [days]
1,O=c1oc2ccccc2c(O)c1C1CC(c2ccc(OCc3ccc(C(F)(F)F)cc3)cc2)Cc2ccccc21 (stereo not given),215
2,O=c1oc2ccccc2c(O)c1C1CC(c2ccc(-c3ccccc3)cc2)Cc2ccccc21 (stereo not given),118
3,O=c1oc2ccccc2c(O)c1C(CC(O)c1ccc(-c2ccc(Br)cc2)cc1)c1ccccc1 (stereo not given) [BROMODIOLONE],170

# Biological target: Vitamin K epoxide reductase complex subunit 1 (Homo sapiens, UniProt Q9BQB6)
# Test: Inhibition of recombinant human wild-type VKORC1 expressed in Pichia pastoris membrane incubated for 30 mins in presence of presence of dithiothreitol by LC-APCI/MS/MS analysis
# Type: cell membranes
# Vitamin K epoxide reductase complex subunit 1, sequence (Q9BQB6 whole entry, one chain of several): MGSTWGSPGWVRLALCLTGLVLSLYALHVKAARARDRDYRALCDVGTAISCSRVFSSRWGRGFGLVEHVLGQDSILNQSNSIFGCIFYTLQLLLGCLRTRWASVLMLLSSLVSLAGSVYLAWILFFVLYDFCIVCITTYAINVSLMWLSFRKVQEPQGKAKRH
row,Structure (SMILES),IC50 [µM]
1,O=c1oc2ccccc2c(O)c1Cc1cccnc1,23.9
2,CC(C)=CCC/C(C)=C\CC/C(C)=C\Cc1c(O)c2ccccc2oc1=O,0.098
3,O=c1oc2ccccc2c(O)c1Cc1ccc(C(F)(F)F)cc1,0.498
4,O=c1oc2ccccc2c(O)c1Cc1ccc2c(c1)OCO2,0.873
5,O=c1oc2ccccc2c(O)c1Cc1ccc(Br)cc1,0.643
6,CSc1ccc(Cc2c(O)c3ccccc3oc2=O)cc1,0.527
7,COc1cccc(Cc2c(O)c3ccccc3oc2=O)c1,5.53
8,O=c1oc2ccccc2c(O)c1C1CC(c2ccc(-c3ccc(Br)cc3)cc2)Cc2ccccc21 (stereo not given) [BRODIFACOUM],0.15
9,COc1ccc(Cc2c(O)c3ccccc3oc2=O)cc1,2.72
10,CC(C)=CCc1c(O)c2ccccc2oc1=O [ISOPRENYLCOUMARIN],79
11,CC(c1ccccc1)c1c(O)c2ccccc2oc1=O (stereo not given),1.53
12,CC(O)CC(c1ccccc1)c1c(O)c2ccccc2oc1=O (stereo not given) [WARFARIN ALCOHOL],12.5
